Results as given in patent US7534894B2, “Biphenyloxy-acids” (Wyeth, priority 2003, dated 2009).

Assays:
[1] = molecular target: T1, recombinant human plasminogen activator inhibitor-1 (PAI-1) (Homo sapiens, UniProt P05121); assay: Primary Screen for the PAI-1 Inhibition (residual tPA activity, chromogenic substrate Spectrozyme-tPA); type: biochemical; conditions: 140 nM PAI-1, 70 nM tPA, pH 6.6; for inhibition at 25 µM: 25 μM test compound; for inhibition at 100 µM: 100 μM test compound
T1 construct: purchased Molecular Innovations, Royal Oak, Mich
Method: (§1) Test compounds are dissolved in DMSO at a final concentration of 10 mM, then diluted 101× in physiologic buffer. The inhibitory assay is initiated by the addition of the test compound (1-100 μM final concentration, maximum DMSO concentration of 0.2%) in a pH 6.6 buffer containing 140 nM recombinant human plasminogen activator inhibitor-1 (PAI-1; Molecular Innovations, Royal Oak, Mich.). Following a 1 hour incubation at room temperature, 70 nM of recombinant human tissue plasminogen activator (tPA) is added, and the combination of the test compound, PAI-1 and tPA is incubated for an additional 30 minutes. Following the second incubation, Spectrozyme-tPA (American Diagnostica, Greenwich, Conn.), a chromogenic substrate for tPA, is added and absorbance read at 405 nm at 0 and 60 minutes. Relative PAI-1 inhibition is equal to the residual tPA activity in the presence of the test compound and PAI-1. Control treatments include the complete inhibition of tPA by PAI-1 at the molar ratio employed (2:1), and the absence of any effect of the test compound on tPA alone.

[2] = molecular target: T1, recombinant human plasminogen activator inhibitor-1 (PAI-1); assay: Kinetic IC50: modification of the Primary Screen for the PAI-1 Inhibition; type: biochemical
Method: as §1

T1 sequence (P05121 24-402): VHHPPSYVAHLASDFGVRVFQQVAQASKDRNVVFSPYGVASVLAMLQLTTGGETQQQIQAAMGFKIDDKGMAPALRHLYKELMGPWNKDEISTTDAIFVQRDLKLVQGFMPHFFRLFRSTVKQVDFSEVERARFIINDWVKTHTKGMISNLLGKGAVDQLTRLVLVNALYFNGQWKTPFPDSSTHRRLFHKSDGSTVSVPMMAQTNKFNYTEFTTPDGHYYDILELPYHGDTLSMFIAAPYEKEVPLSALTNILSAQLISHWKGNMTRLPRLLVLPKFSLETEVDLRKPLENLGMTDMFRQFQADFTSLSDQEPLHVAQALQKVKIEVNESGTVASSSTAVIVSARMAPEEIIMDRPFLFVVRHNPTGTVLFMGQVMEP

inhibition at 25 µM [1] [%] | inhibition at 100 µM [1] [%] | melting point [°C] | IC50 [2] [µM] | SMILES
25 | 85 | 225 to 227 |  | CCCCc1oc2ccccc2c1C(=O)Nc1ccc(-c2ccc(OCC(=O)O)cc2)cc1 [Compound 13, [(4′-{[(2-butyl-1-benzofuran-3-yl)carbonyl]amino}[1,1′-biphenyl]-4-yl)oxy]acetic acid]
29 | 62 | 210 to 212 |  | CCCCc1oc2ccccc2c1C(=O)Nc1ccc(-c2ccc(OCc3nnn[nH]3)cc2)cc1 [Compound 14, 2-Butyl-N-[4′-(1H-tetraazol-5-ylmethoxy)[1,1′-biphenyl]-4-yl]-1-benzofuran-3-carboxamide]
2 | 66 | 190 to 192 |  | CCCc1c(C(=O)NCc2ccc(-c3ccc(OCC(=O)O)cc3)cc2)cnn1-c1ccccc1 [Compound 2, ({4′-[({[1-phenyl-5-propyl-1H-pyrazol-4-yl]carbonyl}amino)methyl][1,1′-biphenyl]-4-yl}oxy)acetic acid]
29 | 75 |  | 18.3 | O=C(O)COc1ccc(-c2ccc(NC(=O)c3cc(-c4ccc(-c5ccccc5)cc4)oc3C(F)(F)F)cc2)cc1 [Compound 36, [(4′-{[5-(1,1′-biphenyl-4-yl)-2-(trifluoromethyl)-3-furoyl]amino}-1,1′-biphenyl-4-yl)oxy]acetic acid]
14 | 83 |  | 18.1 | O=C(O)C(Cc1ccccc1)Oc1ccc(-c2ccc(NC(=O)C3(c4ccc(Cl)cc4)CCC3)cc2)cc1 (stereo not drawn) [Compound 47, 2-{[4′-({[1-(4-chlorophenyl)cyclobutyl]carbonyl}amino)-1,1′-biphenyl-4-yl]oxy}-3-phenylpropanoic acid]
34 | 61 |  | 11.5 | O=C(Nc1ccc(-c2ccc(OC(Cc3ccccc3)C(=O)O)cc2)cc1)c1ccc(Oc2ccccc2)cc1 (stereo not drawn) [Compound 45, 2-({4′-[(4-phenoxybenzoyl)amino]-1,1′-biphenyl-4-yl}oxy)-3-phenylpropanoic acid]
26 | 88 |  | 12 | O=C(Nc1ccc(-c2cccc(OC(Cc3ccccc3)C(=O)O)c2)cc1)c1cc(-c2ccc(C(F)(F)F)cc2)oc1C(F)(F)F (stereo not drawn) [Compound 43, 3-phenyl-2-{[4′-({2-(trifluoromethyl)-5-[4-(trifluoromethyl)phenyl]-3-furoyl}amino)-1,1′-biphenyl-3-yl]oxy}propanoic acid]
15 | 78 |  | 4.04 | O=C(O)C(Cc1ccccc1)Oc1ccc(-c2ccc(NC(=O)C3(c4ccccc4)CC3)cc2)cc1 (stereo not drawn) [Compound 32, 3-phenyl-2-[(4′-{[(1-phenylcyclopropyl)carbonyl]amino}-1,1′-biphenyl-4-yl)oxy]Propanoic acid]
23 | 73 |  | 17.4 | O=C(O)C(Cc1ccccc1)Oc1cccc(-c2ccc(NC(=O)C3(c4cccc(F)c4)CCCC3)cc2)c1 (stereo not drawn) [Compound 30, 2-{[4′-({[1-(3-fluorophenyl)cyclopentyl]carbonyl}amino)-1,1′-biphenyl-3-yl]oxy}-3-phenylpropanoic acid]
30 | 95 |  | 9.1 | CCCCc1oc2ccccc2c1C(=O)Nc1ccc(-c2cccc(OC(Cc3ccccc3)C(=O)O)c2)cc1 (stereo not drawn) [Compound 41, 2-[(4′-{[(2-butyl-1-benzofuran-3-yl)carbonyl]amino}-1,1′-biphenyl-3-yl)oxy]-3-phenylpropanoic acid]
40 | 81 |  | 12 | O=C(O)C(Cc1ccccc1)Oc1cccc(-c2ccc(NC(=O)C3(c4ccc(Cl)cc4)CCC3)cc2)c1 (stereo not drawn) [Compound 39, 2-{[4′-({[1-(4-chlorophenyl)cyclobutyl]carbonyl}amino)-1,1′-biphenyl-3-yl]oxy}-3-phenylpropanoic acid]
27 | 95 |  | 18.7 | O=C(Nc1ccc(-c2ccc(OC(Cc3ccccc3)C(=O)O)cc2)cc1)c1cc(-c2ccc(C(F)(F)F)cc2)oc1C(F)(F)F (stereo not drawn) [Compound 50, 3-phenyl-2-{[4′-({2-(trifluoromethyl)-5-[4-(trifluoromethyl)phenyl]-3-furoyl}amino)-1,1′-biphenyl-4-yl]oxy}propanoic acid]
36 | 51 |  | 12.1 | O=C(Nc1ccc(-c2cccc(OC(Cc3ccccc3)C(=O)O)c2)cc1)c1cccc2c1-c1ccccc1C2 (stereo not drawn) [Compound 24, 2-({4′-[(9H-fluoren-4-ylcarbonyl)amino]-1,1′-biphenyl-3-yl}oxy)-3-phenylpropanoic acid]
44 | 82 | 175 to 190 |  | CCCCc1oc2ccccc2c1C(=O)NCc1ccc(-c2ccc(OCC(=O)O)c(Br)c2)cc1 [Compound 4, {[3-bromo-4′-({[(2-butyl-1-benzofuran-3-yl)carbonyl]amino}methyl)[1,1′-biphenyl]-4-yl]oxy}acetic acid]
24 | 51 |  | 31.1 | O=C(O)C(Cc1ccccc1)Oc1ccc(-c2ccc(NC(=O)C3(c4ccccc4)CCCC3)cc2)cc1 (stereo not drawn) [Compound 31, 3-phenyl-2-[(4′-{[(1-phenylcyclopentyl)carbonyl]amino}-1,1′-biphenyl-4-yl)oxy]Propanoic acid]
22 | 79 |  | 13.9 | O=C(O)C(Cc1ccccc1)Oc1ccc(-c2ccc(NC(=O)C3(c4ccc(Cl)cc4)CC3)cc2)cc1 (stereo not drawn) [Compound 33, 2-{[4′-({[1-(4-chlorophenyl)cyclopropyl]carbonyl}amino)-1,1′-biphenyl-4-yl]oxy}-3-phenylpropanoic acid]
17 | 52 |  | 11.8 | Cc1nn(Cc2ccc(C(=O)Nc3ccc(-c4cccc(OC(Cc5ccccc5)C(=O)O)c4)cc3)o2)c(C)c1Br (stereo not drawn) [Compound 44, 2-{[4′-({5-[(4-bromo-3,5-dimethyl-1H-pyrazol-1-yl)methyl]-2-furoyl}amino)-1,1′-biphenyl-3-yl]oxy}-3-phenylpropanoic acid]
31 | 90 |  | 10.2 | O=C(Nc1ccc(-c2cccc(OC(Cc3ccccc3)C(=O)O)c2)cc1)c1cc(-c2ccccc2Cl)oc1C(F)(F)F (stereo not drawn) [Compound 40, 2-[(4′-{[5-(2-chlorophenyl)-2-(trifluoromethyl)-3-furoyl]amino}-1,1′-biphenyl-3-yl)oxy]-3-phenylpropanoic acid]
33 | 70 |  | 38.6 | O=C(O)C(Cc1ccccc1)Oc1ccc(-c2ccc(NC(=O)C3(c4cccc(F)c4)CCCC3)cc2)cc1 (stereo not drawn) [Compound 34, 2-{[4′-({[1-(3-fluorophenyl)cyclopentyl]carbonyl}amino)-1,1′-biphenyl-4-yl]oxy}-3-phenylpropanoic acid]
